Reference: ChEMBL document CHEMBL3351271, “Design, synthesis and biological evaluation of novel potent MDM2/p53 small-molecule inhibitors” (Bioorg Med Chem Lett, 2015)

Legend:
[1] = Cytotoxicity against p53 expressing human HCT116 cells after 48 hrs by MTT assay; format: functional, cell-based; conditions: HCT-116, 48 h
[2] = tested on: HepG2; experiment: Cytotoxicity against human HepG2 cells after 48 hrs by MTT assay; format: functional, cell-based; conditions: HepG2, 48 h
[3] = tested on: SiHa; experiment: Cytotoxicity against human SiHa cells after 48 hrs by MTT assay; format: functional, cell-based
[4] = tested on: HEK293; experiment: Cytotoxicity against HEK293 cells after 48 hrs by MTT assay; format: cell-based; conditions: Homo sapiens, HEK293, 48 h
[5] = tested on: MCF7; experiment: Cytotoxicity against human MCF7 cells after 48 hrs by MTT assay; format: functional, cell-based; conditions: MCF7, 48 h
[6] = Cytotoxicity against p53 deficient human HCT116 cells after 48 hrs by MTT assay; format: functional, cell-based; conditions: HCT-116, 48 h
[7] = tested on: MCF7; experiment: Cytotoxicity against human MCF7 cells after 120 hrs by MTT assay; format: functional; conditions: MCF7, 120 h
[8] = target: Tumour suppressor p53/oncoprotein Mdm2 (Homo sapiens, UniProt Q00987); experiment: Inhibition of MDM2/P53 (unknown origin) protein interaction by fluorescent polarization assay
[9] = Homo sapiens, SiHa, 48 h, read-out: IC50

Tumour suppressor p53/oncoprotein Mdm2, sequence (P04637 whole entry): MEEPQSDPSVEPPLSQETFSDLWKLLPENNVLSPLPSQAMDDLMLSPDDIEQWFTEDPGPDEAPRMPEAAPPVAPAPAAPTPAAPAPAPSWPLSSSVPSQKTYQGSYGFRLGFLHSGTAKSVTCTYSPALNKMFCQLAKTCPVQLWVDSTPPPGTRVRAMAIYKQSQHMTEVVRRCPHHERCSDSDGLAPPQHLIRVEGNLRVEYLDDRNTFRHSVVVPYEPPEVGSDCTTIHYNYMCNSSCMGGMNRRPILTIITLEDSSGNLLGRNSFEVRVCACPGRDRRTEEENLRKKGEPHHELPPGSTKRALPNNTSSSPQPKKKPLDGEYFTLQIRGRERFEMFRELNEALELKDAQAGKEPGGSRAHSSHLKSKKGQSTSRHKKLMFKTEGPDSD
Tumour suppressor p53/oncoprotein Mdm2, sequence (Q00987 whole entry): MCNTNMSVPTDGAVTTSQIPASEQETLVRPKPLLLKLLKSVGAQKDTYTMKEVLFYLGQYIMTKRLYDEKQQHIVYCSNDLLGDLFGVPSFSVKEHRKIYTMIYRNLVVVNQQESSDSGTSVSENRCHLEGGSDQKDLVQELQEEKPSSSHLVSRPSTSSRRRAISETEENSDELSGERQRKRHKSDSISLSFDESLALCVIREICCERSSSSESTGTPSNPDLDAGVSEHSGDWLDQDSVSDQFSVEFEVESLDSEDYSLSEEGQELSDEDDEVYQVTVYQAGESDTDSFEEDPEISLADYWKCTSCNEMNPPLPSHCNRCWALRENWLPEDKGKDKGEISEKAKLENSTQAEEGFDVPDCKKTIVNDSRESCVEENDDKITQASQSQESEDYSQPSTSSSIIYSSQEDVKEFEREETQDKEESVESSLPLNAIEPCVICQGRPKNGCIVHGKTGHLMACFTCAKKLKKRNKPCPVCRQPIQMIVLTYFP

SMILES | IC50 [1] [µM] | IC50 [2] [µM] | IC50 ([3]; siha) | IC50 [4] [µM] | IC50 [5] [µM] | IC50 [6] [µM] | IC50 [3, 9] [µM] | CC50 [7] [µM] | Ki [8] [µM]
CC(C)Oc1ccc(C2CN(C)[C@]3(C(=O)Nc4ccccc43)[C@]23NC(=S)N(c2ccc(F)c(Cl)c2)C3=O)cc1 (stereo partly specified) | 8.55 | 49.9 | Not Active | 13.5 | 20.2 | 7.4 |  |  | 
CN1CC(c2ccc(Cl)cc2)[C@@]2(NC(=S)N(c3ccc(F)c(Cl)c3)C2=O)[C@@]12C(=O)Nc1ccccc12 (stereo partly specified) | 7.78 | 9.08 |  | 5.68 | 4.88 | 7.33 | 7.65 |  | 
CC(C)Oc1ccc(C2CN(C)[C@]3(C(=O)Nc4ccc(Br)cc43)[C@]23NC(=S)N(c2ccc(F)c(Cl)c2)C3=O)cc1 (stereo partly specified) | 38.8 | 34.6 | Not Active | 15.8 | 34.9 | 19.4 |  |  | 
CCOc1ccc(N2C(=O)[C@@]3(NC2=S)C(c2ccc(Cl)cc2)CN(C)[C@]32C(=O)Nc3ccccc32)cc1 (stereo partly specified) | 8.6 | 103 |  | 9.1 | 87.7 | 8.57 | 81.7 |  | 
CCc1ccc(C2CN(C)[C@]3(C(=O)Nc4ccccc43)[C@]23NC(=S)N(c2ccc(F)c(Cl)c2)C3=O)cc1 (stereo partly specified) | 8.6 | 33.9 |  | 12.5 | 19 | 8.45 | 42.5 |  | 
CCOc1ccc(N2C(=O)[C@@]3(NC2=S)C(c2ccc(Cl)cc2)CN(C)[C@]32C(=O)Nc3ccc(Br)cc32)cc1 (stereo partly specified) | ≥ 50 | 42.1 | Not Active | 28.6 | 34.9 | 16.3 |  |  | 
CN1CC(c2ccc(Cl)cc2)[C@@]2(NC(=S)N(c3ccc(F)c(Cl)c3)C2=O)[C@@]12C(=O)Nc1ccc(Br)cc12 (stereo partly specified) | 9.9 | 11.1 |  | 10.3 | 6.84 | 8.65 | 12.1 |  | 
CCc1ccc(C2CN(C)[C@]3(C(=O)Nc4ccc(Br)cc43)[C@]23NC(=S)N(c2ccc(F)c(Cl)c2)C3=O)cc1 (stereo partly specified) | 11.6 | 23 |  | 15.6 | 15.5 | 33.5 | 79.1 |  | 
CCOc1cc(C(C)(C)C)ccc1C1=N[C@@](C)(c2ccc(Cl)cc2)[C@@](C)(c2ccc(Cl)cc2)N1C(=O)N1CCN(CCS(C)(=O)=O)CC1 |  |  |  |  |  |  |  | 0.94 | 
CC(C)CC(N/C(C(=O)NCc1ccccc1)=C1\C(C(=O)NO)=Nc2cc(Cl)ccc21)C(=O)NO (stereo unspecified) |  |  |  |  |  |  |  |  | 0.9
COc1ccc(C2=N[C@@H](c3ccc(Cl)cc3)[C@@H](c3ccc(Cl)cc3)N2C(=O)N2CCNC(=O)C2)c(OC(C)C)c1 [NUTLIN-3] |  | 5.1 |  |  |  |  |  |  | 
